Measured values published in patent US12152038B2, “Vasopressin receptor antagonists and products and methods related thereto” (Neumora Therapeutics, Inc., priority 2017, dated 2024).

Assays:
[1] = Wild-type MDCK permeability and efflux assay (Papp, efflux ratio); type: in vitro ADME; conditions: dog, pH 7.4, wild-type MDCK cells; for efflux ratio at 1 h, 10 μM: Papp B>A/Papp A>B, read-out: ER WT (Efflux Ratio)
Procedure: The MDR1-MDCK effective efflux assay was performed as described in the BioFocus Standard Operating Procedure, ADME-SOP-56. Both wild-type (WT) and MDR1-MDCK cells (Solvo Biotechnology) were seeded onto 24-well Transwell plates at 2.35×10^5 cells per well and used in confluent monolayers after a 3 day culture at 37° C. under 5% CO2. For both cell types, test and control compounds (propranolol, vinblastine) were added (10 μM, 0.1% DMSO final, n=2) to donor compartments of the Transwell plate assembly in assay buffer (Hanks balanced salt solution supplemented with 25 mM HEPES, adjusted to pH 7.4) for both apical to basolateral (A>B) and basolateral to apical (B>A) measurements. Incubations were performed at 37° C., with samples removed from both donor and acceptor chambers at T=0 and 1 hour and compound analysed by mass spectrometry (LC-MS/MS) including an analytical internal standard.
Apparent permeability (Papp) values were determined from the relationship: Papp=[CompoundAcceptor T=end]×V Acceptor/([Compound Donor T=0]×V Donor)/incubation time×V Donor/Area×60×10^−6 cm/s
In this equation, V is the volume of each Transwell compartment (apical 125 μL, basolateral 600 μL), and concentrations are the relative MS responses for compound (normalized to internal standard) in the donor chamber before incubation and acceptor chamber at the end of the incubation, and Area is the area of cells exposed for drug transfer (0.33 cm^2).
Efflux ratios (Papp B>A/Papp A>B) were calculated for each compound from the mean Papp values in each direction for both wild-type and MDR1-MDCK cells.
In order to confirm the involvement of MDR1 in any efflux seen, an “effective efflux ratio” (EER) was calculated by comparing compound efflux ratios (ER) in the two cell types by the following equation: EER=ER(MDR1-MDCK)/ER(wild-type MDCK)
This ratio illustrates the effect of the over-expressed MDR1 normalised for the background movement of compound through the wild-type cells.
Lucifer Yellow (LY) was added to the apical buffer in all wells to assess viability of the cell layer. […] Recoveries<50% indicates compound solubility, stability or binding issues, thereby reducing the reliability of a result.
The inherent ability of a potential drug molecule to penetrate the blood brain barrier and avoid efflux by transporters expressed in the brain, can be roughly correlated with the Papp(A-B) and the efflux ratio (as defined above), respectively. A potential drug molecule with an apparent permeability<7 (10^−6 cm/sec) has low permeability (+), >7 (10^−6 cm/sec) but <10 (10^−6 cm/sec) has moderate permeability (++), >10 (10^−6 cm/sec) but <20 (10^−6 cm/sec) has good permeability (+++), and >20 (10^−6 cm/sec) is highly permeable (++++). High permeability in the WT and MDCK II cell permeability assay increases the probability of blood brain barrier penetration and access to the CNS. A potential drug molecule in the above assay system with an efflux ratio or effective efflux ratio of <1 has low probability of being an efflux substrate (++++), >1 but <2 has moderate probability of being an efflux substrate (+++), >2 but <3 has has an increased probability of being an efflux substrate (++), and >3 has a high probability of being an efflux substrate (+). If a potential drug molecule is an efflux substrate, the molecule will have a low probability of reaching exposures in the brain (site of action) that will result in efficacious levels of receptor occupancy.

[2] = biological target: T1, human Oxytocin Receptor (hOTR) (Homo sapiens, UniProt P30559); assay: Oxytocin receptor (OTR) antagonist assay (FLIPR calcium, CHEM-1-hOTR cells); type: cell-based
T1 construct: host or cells: CHEM-1 (ready-to-assay frozen cells)
T1 sequence (P30559 1-389): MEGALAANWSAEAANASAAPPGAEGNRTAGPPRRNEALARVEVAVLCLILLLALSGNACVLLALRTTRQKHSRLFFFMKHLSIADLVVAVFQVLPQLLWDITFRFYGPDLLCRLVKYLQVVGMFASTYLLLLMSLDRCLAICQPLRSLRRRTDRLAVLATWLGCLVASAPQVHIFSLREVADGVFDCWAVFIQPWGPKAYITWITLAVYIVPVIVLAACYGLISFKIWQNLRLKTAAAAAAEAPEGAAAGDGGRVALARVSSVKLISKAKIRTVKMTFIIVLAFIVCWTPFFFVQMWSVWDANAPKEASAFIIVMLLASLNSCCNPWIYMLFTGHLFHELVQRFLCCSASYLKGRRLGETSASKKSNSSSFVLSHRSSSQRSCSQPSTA
Procedure: This assay was performed in CHEM-1 cells expressing the human Oxytocin Receptor (hOTR) to determine the inhibitory effect of the compounds of the invention on the human Oxytocin receptor. Oxytocin evokes an increase in intracellular calcium in CHEM-1-hOTR cells which is measured in a fluorescence assay on the FLIPR^TETRA using calcium sensitive dyes. Test compounds were assessed for their ability to affect the magnitude of the response to oxytocin, with antagonists showing a concentration-dependent reduction in the oxytocin-mediated fluorescence.
CHEM-1-hOTR ready was used to assay frozen cells (Eurofins #HTS09ORTA) which are supplied with a proprietary Media Component.
Day 1 of the assay: Cells were thawed in a 37° C. water bath and diluted with the supplied Media Component to a final volume of 10 ml. The cell suspension was centrifuged at 1000 rpm for 3 min at room temperature and the supernatant was discarded. The cell pellet was resuspended in Media Component (10.5 ml) and the cells (25 μL) were dispensed into a poly-D-lysine coated black, clear bottomed, 384-well plate. The plates were incubated overnight at 37° C., 5% CO2.
Day 2: At the start of each assay day the potency of oxytocin was assessed and an EC80 concentration was determined for subsequent compound profiling. Assays were performed using a two-step addition protocol on the FLIPR^TETRA; first addition of 5 μl of control or test compound at 10× final in assay buffer with 15 min incubation at 37° C., 5% CO2 followed by 10 μl of oxytocin at 6× final concentration in assay buffer. Changes in fluorescence were monitored for 3 min after both additions on the FLIPR^TETRA using 470-495 nm excitation and 515-575 nm emission wavelengths. The assay buffer consisted of HBSS (+Ca/+Mg) supplemented with 20 mM HEPES, and for the preparation of the oxytocin agonist only, 0.1% w/v bovine serum albumin. The assay was initiated by the removal of growth media from the cells and replaced with 45 μl of Calcium-6 dye (Molecular Devices) prepared at 1× in assay buffer. Cells were loaded with dye for 60-90 min at 37° C., 5% CO2 before initiation of the FLIPR^TETRA protocol. […] For compound profiling, test compounds were first serially diluted in DMSO (10-point curve, 1:3 dilutions) then diluted 33.3-fold in assay buffer prior to addition to the dye loaded cells on the FLIPR^TETRA. At the end of the incubation period 10 μl of oxytocin in assay buffer containing 0.1% BSA was added at the previously determined EC80 concentration.
In-plate controls for the assay included a L-368,899 concentration-response curve as the reference OTR antagonist and an oxytocin concentration-response curve to confirm the reproducibility of the EC80 used for the compound challenge.

Row | SMILES | Papp A→B at 1 h, 10 μM [1] [×10⁻⁶ cm/s] | efflux ratio at 1 h, 10 μM [1] | IC50 [2] [nM]
1 | Cc1cncc(N2CC3(CN(C(=O)N4c5ccc(F)cc5OCC4C)C3)C2)n1 (single isomer, unassigned) [20-2-A] | > 20 | < 1 | –
2 | O=C(N1CC2(C1)CN(c1cnccn1)C2)N1CCOc2cc(Cl)ccc21 [8-3] | > 20 | < 1 | –
3 | Cc1cncc(N2CC3(CN(C(=O)N4c5ccc(F)cc5OCC4C)C3)C2)n1 (centres unmarked) [20-2] | > 20 | 1 to 2 | 100 to 500
4 | CC1COc2cc(F)ccc2N1C(=O)N1CC2(C1)CN(c1noc3ccccc13)C2 (centres unmarked) [4-3] | > 20 | < 1 | –
5 | CC1COc2cc(Cl)ccc2N1C(=O)N1CC2(C1)CN(c1cc(C#N)ccn1)C2 (single isomer, unassigned) [20-6-B] | – | – | < 100
6 | O=C(N1CC2(C1)CN(c1cnccn1)C2)N1CCC(O)c2cc(Cl)ccc21 (single isomer, unassigned) [13-3-A] | – | – | ≥ 1000
7 | CC1COc2cc(Cl)ccc2N1C(=O)N1CC2(C1)CN(c1cccnc1)C2 (centres unmarked) [20-1, (7-chloro-3-methyl-2,3-dihydro-4H-benzo[b][1,4]oxazin-4-yl)(6-(pyridin-3-yl)-2,6-diazaspiro[3.3]heptan-2-yl)methanone] | – | – | 100 to 500
8 | CCC1COc2cc(Cl)ccc2N1C(=O)N1CC2(C1)CN(c1ccccn1)C2 (centres unmarked) [11-1, (7-chloro-3-ethyl-2,3-dihydro-4H-benzo[b][1,4]oxazin-4-yl)(6-(pyridin-2-yl)-2,6-diazaspiro[3.3]heptan-2-yl)methanone] | – | – | < 100
9 | O=C(N1CC2(C1)CN(c1ccc(F)cn1)C2)N1CCC(F)c2cc(Cl)ccc21 (centres unmarked) [14-1, (6-chloro-4-fluoro-3,4-dihydroquinolin-1(2H)-yl)(6-(5-fluoropyridin-2-yl)-2,6-diazaspiro[3.3]heptan-2-yl)methanone] | – | – | ≥ 1000
10 | CC1COc2cc(Cl)c(F)cc2N1C(=O)N1CC2(C1)CN(c1ncccn1)C2 (centres unmarked) [19-2] | – | – | 500 to 1000
11 | CC1COc2cc(F)ccc2N1C(=O)N1CC2(C1)CN(c1ccc(F)cn1)C2 (centres unmarked) [12-1, (7-fluoro-3-methyl-2,3-dihydro-4H-benzo[b][1,4]oxazin-4-yl)(6-(5-fluoropyridin-2-yl)-2,6-diazaspiro[3.3]heptan-2-yl)methanone] | – | – | 500 to 1000
12 | Cc1cnc(N2CC3(CN(C(=O)N4c5ccc(Cl)cc5OCC4C)C3)C2)cn1 (single isomer, unassigned) [20-5-B] | – | – | 100 to 500
13 | Cc1nc(N2CC3(CN(C(=O)N4c5ccc(Cl)cc5OCC4C)C3)C2)ncc1F (centres unmarked) [20-7] | – | – | 100 to 500
14 | CC1COc2cc(Cl)ccc2N1C(=O)N1CC2(C1)CN(c1cc(C#N)ccn1)C2 (centres unmarked) [20-6] | – | – | < 100
15 | O=C(N1CC2(C1)CN(c1ccc(F)cn1)C2)N1CCc2cc(Cl)ccc21 [8-11] | > 20 | < 1 | –
16 | CC1CN(C(=O)N2CC3(C2)CN(c2ccc(F)cn2)C3)c2ccc(Cl)cc2O1 (single isomer, unassigned) [9-3-A] | – | – | 500 to 1000

Row | SMILES | Papp A→B at 1 h, 10 μM [1] [×10⁻⁶ cm/s] | efflux ratio at 1 h, 10 μM [1] | IC50 [2] [nM]
17 | CC1CN(C(=O)N2CC3(C2)CN(c2ccc(F)cn2)C3)c2ccc(F)cc2O1 (single isomer, unassigned) [9-4-B] | – | – | ≥ 1000
18 | CC1COc2cc(Cl)ccc2N1C(=O)N1CC2(C1)CN(c1cccnn1)C2 (centres unmarked) [9-1, (7-chloro-3-methyl-2,3-dihydro-4H-benzo[b][1,4]oxazin-4-yl)(6-(pyridazin-3-yl)-2,6-diazaspiro[3.3]heptan-2-yl)methanone] | – | – | 100 to 500
19 | Cc1ccnc(N2CC3(CN(C(=O)N4c5ccc(Cl)cc5OCC4C)C3)C2)n1 (centres unmarked) [20-12] | – | – | 100 to 500
20 | O=C(N1CC2(C1)CN(c1ccc(F)cn1)C2)N1CCC(F)(F)c2cc(Cl)ccc21 [17-1, (6-chloro-4,4-difluoro-3,4-dihydroquinolin-1(2H)-yl)(6-(5-fluoropyridin-2-yl)-2,6-diazaspiro[3.3]heptan-2-yl)methanone] | > 20 | < 1 | –
21 | Cc1nc(N2CC3(CN(C(=O)N4c5ccc(Cl)cc5OCC4C)C3)C2)ncc1F (single isomer, unassigned) [20-7-B] | – | – | 100 to 500
22 | O=C(N1CC2(C1)CN(c1ccccn1)C2)N1CCOc2cc(Cl)ccc21 [8-2] | > 20 | < 1 | –
23 | CC1COc2cc(F)ccc2N1C(=O)N1CC2(C1)CN(c1ccc(F)cn1)C2 (single isomer, unassigned) [12-1-B] | – | – | 100 to 500
24 | CC1CN(C(=O)N2CC3(C2)CN(c2ccc(F)cn2)C3)c2ccc(Cl)cc2O1 (centres unmarked) [9-3] | – | – | 500 to 1000
25 | Cc1cncc(N2CC3(CN(C(=O)N4c5ccc(F)cc5OCC4C)C3)C2)n1 (single isomer, unassigned) [20-2-B] | – | – | 100 to 500
26 | CC1COc2cc(Cl)c(F)cc2N1C(=O)N1CC2(C1)CN(c1cccnc1)C2 (centres unmarked) [19-6] | – | – | 100 to 500
27 | O=C(N1CC2(C1)CN(c1cnccn1)C2)N1CCC(O)c2cc(Cl)ccc21 (centres unmarked) [13-3] | – | – | ≥ 1000
28 | O=C(N1CC2(C1)CN(c1cccc(F)n1)C2)N1CCc2cc(Cl)ccc21 [1-78] | – | – | ≥ 1000
29 | O=C(N1CC2(C1)CN(c1cnccn1)C2)N1CCOCc2cc(Cl)ccc21 [8-13] | – | – | ≥ 1000
30 | O=C(N1CC2(C1)CN(c1cnccn1)C2)N1CCc2cc(Cl)ccc21 [8-14] | > 20 | 1 to 2 | –
31 | CC1Cc2cc(Cl)ccc2N1C(=O)N1CC2(C1)CN(c1ccc(F)cn1)C2 (centres unmarked) [8-16] | – | – | < 100
32 | O=C(N1CC2(C1)CN(c1ccccn1)C2)N1CCC(O)c2cc(Cl)ccc21 (single isomer, unassigned) [13-2-A] | – | – | 500 to 1000
